# Entries after “also recorded” stand apart in the source; their conditions may differ.
# Columns and labels:
# lpo-1 mutant nematodes = tested on: lpo-1 mutant nematodes; set-up: species or system C. elegans; conditions: in vivo
# C. elegans = assay: Growth rate, brood-size, pharyngeal pumping, dauer formation, dauer recovery and lifespan assays; conditions: concentrations between 0.001 μg/ml and 25 μg/ml
# [1] = tested on: daf-2(e1370) mutant nematodes; set-up: species or system C. elegans; conditions: in vivo
# [2] = tested on: tub-1(nr2004) mutant nematodes; set-up: species or system C. elegans; conditions: in vivo
# nematode progeny = assay: Continuous AICAR treatment: growth and development of nematode progeny; conditions: relative to untreated control progeny
# Experimental: Adult wild-type nematodes, daf-2 (e1370), tph-1(mg280), and tub-1(nr2004) mutant nematodes were treated with 500 μM AICAR, and their fat content was detected using Nile Red as described above. […] To determine whether the effects of AICAR were reversible, AICAR-treated nematodes were then moved to culture plates without AICAR. […] The effect of continuous AICAR treatment was tested by seeding AICAR plates with five hermaphrodites, and then monitoring the effect of AICAR on the growth and development of nematode progeny relative to untreated control progeny.
# [3] = tested on: tph-1(mg280) mutant nematodes; assay: Nile Red fat staining of tph-1(mg280) nematodes (RNAi epistasis analysis; compound treatment); type: in vivo, C. elegans; conditions: adult tph-1(mg280) nematodes, 500 μM
# wild-type nematodes = assay: Nile Red fat staining of wild-type nematodes (feeding RNAi screen; compound treatment); type: in vivo, C. elegans
compound,measurement,setting,value
CC[C@H](C)C(=O)O[C@H]1C[C@@H](C)C=C2C=C[C@H](C)[C@H](CC[C@@H]3C[C@@H](O)CC(=O)O3)[C@H]21 [mevinolin],fat content / fat accumulation by Nile Red staining,lpo-1 mutant nematodes,reduced; also recorded: decreased fat accumulation
"CCN(CC)c1ccc2nc3c4ccccc4c(=O)cc-3oc2c1 [Nile Red, 9-diethylamino-5H-benzo[α]phenoxazine-5-one]","adverse effects on growth rate, brood-size, pharyngeal pumping, dauer formation, dauer recovery, or lifespan",C. elegans,No adverse effects
"NC(=O)c1ncn([C@@H]2O[C@H](CO)[C@@H](O)[C@H]2O)c1N [AICAR, 5-aminoimidazole-4-carbozamide ribonucleoside]",fat content relative to untreated control nematodes,[1],progressive reduction in fat content
same,fat content relative to untreated control nematodes,[2],progressive reduction in fat content
same,effect on growth and development of progeny,nematode progeny,dramatic retardation of larval growth accompanied by depleted fat stores
same,fat content relative to untreated control nematodes,[3],progressive reduction in fat content
same,time at which reduction in fat content was detectable,"wild-type nematodes; 500 μM, wild-type and daf-2, tph-1, tub-1 mutant nematodes",twenty-four
same,fat content relative to untreated control nematodes,"wild-type nematodes; adult wild-type nematodes, 500 μM",progressive reduction in fat content
same,reversibility of fat reduction,wild-type nematodes; treated nematodes moved to culture plates without AICAR,regained their fat content

# Reference: patent US20070087378A1, “Polynucleotide and polypeptide fat metabolism regulators and uses thereof” (priority 2002, published 2007)
